The text below walks through data of ChEMBL document CHEMBL4419166, “Use of small molecule inhibitors to klf10 for modulation of t regulatory cells and cancer immunotherapy” (2017).

As usually defined, the inhibition is how much of the control response was suppressed.

SMILES strings stand for the structures. Calls of active or inactive are those of the source. No cut-off for these calls is given here.

The test system of test [1] is B16. The test can be described thus: Antitumor activity against mouse B16 cells implanted in mouse assessed as reduction tumor volume at 200 mg/kg, ip dosed on day 3 to 7. Type of test: functional, organism-based.
In test [2] the test system is Mus musculus. The test can be described thus: Suppression of TGF-beta1 expression in CD4+ T cells isolated from mouse B16 cells implanted mouse at 25 to 100 mg/kg, ip. Type of test: functional, organism-based.
For test [3], the target named is T1, Krueppel-like factor 10 (Mus musculus) (UniProt O89091).
T1 sequence (whole entry): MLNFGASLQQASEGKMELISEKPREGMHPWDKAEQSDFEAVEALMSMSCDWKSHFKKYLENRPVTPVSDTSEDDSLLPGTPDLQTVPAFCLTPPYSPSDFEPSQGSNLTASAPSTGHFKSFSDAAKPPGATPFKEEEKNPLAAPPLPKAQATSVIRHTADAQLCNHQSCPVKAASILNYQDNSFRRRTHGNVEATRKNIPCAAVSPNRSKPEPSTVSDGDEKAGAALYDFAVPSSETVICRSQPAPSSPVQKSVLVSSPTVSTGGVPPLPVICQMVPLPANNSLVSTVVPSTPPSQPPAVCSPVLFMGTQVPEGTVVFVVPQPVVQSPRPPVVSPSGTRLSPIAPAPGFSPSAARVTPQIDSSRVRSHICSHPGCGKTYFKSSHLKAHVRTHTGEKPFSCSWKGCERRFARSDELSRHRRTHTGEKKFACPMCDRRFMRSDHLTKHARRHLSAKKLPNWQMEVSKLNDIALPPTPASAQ
Kind of test: Inhibition of KLF10 in mouse CD4+CD25- T cells assessed as reduction in checkpoint markers on iTregs by measuring CTLA4 expression level. Type of test: cell-based. Further details: scale not given: the % may be the effect or the level left.

Test [4] concerns the target Krueppel-like factor 1 (Homo sapiens) (UniProt Q13351). The test can be described thus: Inhibition of GST-tagged KLF1 (unknown origin) binding to double-stranded DNA at 8 uM by electromobility gel shift assay relative to control.
Test [5] relates to B16. Kind of test: Antitumor activity against mouse B16cells implanted in mouse assessed as reduction tumor volume at 20 mg/kg dosed via local injection on day 0 and measured from day 4 to day 13. It counts as functional, organism-based.
Test [6] has as its target Krueppel-like factor 1 (Homo sapiens) (UniProt Q13351). Kind of test: Inhibition of GST-tagged KLF1 (unknown origin) binding to double-stranded DNA at 40 uM by electromobility gel shift assay relative to control. On the technique in general: A gel shift assay detects complexes by their altered migration in electrophoresis.
The target in test [7] is T1, Krueppel-like factor 10 (Mus musculus). Kind of test: Inhibition of KLF10 in mouse CD4+CD25- T cells assessed as reduction in Foxp3 mRNA expression incubated for 5 days by real time qPCR analysis relative to control. Type of test: cell-based. (In qPCR the cycle at which signal appears reflects the starting amount.)
The target is the same in test [8]. The test can be described thus: Inhibition of KLF10 in mouse CD4+CD25- T cells assessed as reduction in checkpoint markers on iTregs by measuring PDL1 expression level. It counts as cell-based. Further details: scale not given: the % may be the effect or the level left.
The subject of test [9] is Mus musculus. The test can be described thus: Antitumor activity against mouse TRAMP-C2 cells implanted in mouse assessed as reduction tumor volume at 200 mg/kg, ip dosed on day 3 to 7. Type of test: functional, organism-based.
For test [10], the target named is T1, Krueppel-like factor 10 (Mus musculus). Kind of test: Inhibition of KLF10 in mouse CD4+CD25- T cells assessed as reduction in checkpoint markers on iTregs by measuring PD1 expression level. It counts as cell-based. Further details: scale not given: the % may be the effect or the level left.
For test [11] the target is unchanged. Kind of test: Inhibition of KLF10 in mouse CD4+CD25- T cells assessed as reduction in Foxp3 mRNA expression at 50 uM incubated for 5 days by real time qPCR analysis relative to control. Type of test: cell-based.
The target is the same in test [12]. The test can be described thus: Inhibition of KLF10 in mouse CD4+CD25- T cells assessed as reduction in PD1 mRNA expression at 50 uM incubated for 5 days by real time qPCR analysis relative to control. Type of test: cell-based.

Sequence of Krueppel-like factor 1 (Homo sapiens) (Q13351 whole entry): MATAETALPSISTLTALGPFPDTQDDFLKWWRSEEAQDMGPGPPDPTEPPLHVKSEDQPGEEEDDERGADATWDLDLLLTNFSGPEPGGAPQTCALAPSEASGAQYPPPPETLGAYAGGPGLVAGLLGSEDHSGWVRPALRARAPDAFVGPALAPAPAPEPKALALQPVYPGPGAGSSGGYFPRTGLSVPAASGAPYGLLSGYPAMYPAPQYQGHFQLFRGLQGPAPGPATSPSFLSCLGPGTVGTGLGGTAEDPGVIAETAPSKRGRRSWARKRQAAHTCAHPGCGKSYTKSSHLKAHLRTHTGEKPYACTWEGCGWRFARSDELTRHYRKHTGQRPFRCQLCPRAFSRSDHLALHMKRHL

In the case of `Cc1ccc(OCC(=O)c2cc(C)c(O)cc2O)cc1`, the inhibition entry in [1], in [2], in test [7] and in test [9] was “Active” in each case. Besides, the Activity in test [3] was 88.7%; in test [8], 43.7%; in test [10], 49.4%. In addition, the inhibition result in test [4] and in [6] was “inactive” each time. Besides, the outcome in test [5] was Active.

Regarding `COc1ccc(C(=O)COC(=O)c2cc(C)ccc2O)cc1`, the inhibition in test [11] came to 82.5%. Also, the Activity worked out at 92% in test [3], 53.1% in test [8] and 47.6% in [10]. The inhibition result in [4] and in test [6] was “inactive” each time. Also, the inhibition result in [12] and in [7] was “Active” in each case.
